The values below come from a melting point compilation (Tetko et al.; mined from patent text by program, amines drawn as free bases though some values may be those of a salt).

One may read the melting point as the temperature of the solid-liquid transition.

Each structure is given as a SMILES string.

Regarding `NS(=O)(=O)c1ccc(-c2noc(-c3cnn4c(C(F)(F)F)cc(-c5cccc(C(F)(F)F)c5)nc34)n2)cc1`, the melting point stood at 300 °C.

`CCCc1c(OCCCCCCc2ccc(CCCCC(=O)O)c(CCC(=O)O)c2)ccc2c1OCCC2=O`: the melting point was in the range of 108 to 109 °C.

For `COc1cccc(C(=O)c2[nH]c3cc(Cl)ccc3c2CC(=O)O)c1`, the melting point was in the range of 227 to 231 °C.

Take `CN1CCSC1=NC(=Nc1ccccc1)N1CCCCC1`: the melting point lay within 122 to 124 °C.

Molecule `CN(C)CCCN1N=C2C(=Cc3ccccc3)CSCC2C1c1ccccc1` (stereo not drawn) gave a melting point of 83 to 85 °C.

Turning to `O=C(c1ccc(-c2ccn(C(=O)c3ccc(F)cc3Cl)n2)cc1)N1Cc2cccn2Cc2ccccc21`, the melting point was 150 to 157 °C.

For the molecule `COc1cccc([C@H]2O[C@H](CC(=O)Nc3nc(C)c(C(=O)O)s3)C(=O)N(CC(C)(C)CO)c3ccc(Cl)cc32)c1OC`, the melting point was in the range of 251 to 252 °C.

`O=[N+]([O-])C=C1SCCN1Cc1cccnc1`: the melting point is 96 to 100 °C.

For `NC(=O)c1nc(Cl)cc(N)c1Cl`, the melting point lay in the range of 240 to 241 °C.

`CC(C)C(NC(=O)Cc1ccc(-c2ccccc2)cc1)C(=O)Nc1n[nH]c(=S)s1` (stereo not drawn) yielded a melting point of 232 to 236 °C.

The molecule `C#Cc1cc(Nc2ncnc3cnc(NC(=O)CP(=O)(OCC)OCC)cc23)ccc1F` displayed a melting point of 103 to 106 °C.

Regarding `O=C(/C=C/c1ccc([N+](=O)[O-])cc1)c1cc2ccccc2oc1=O`, the melting point is 272 to 274 °C.

For the molecule `COc1cccc2sc(C3(O)CCN(C(=O)OC(C)(C)C)C(C)C3)cc12` (stereo not drawn), the melting point was in the range of 73 to 76 °C.

Molecule `CC(C)(C)OC(=O)N[C@H]1CN(Cc2ccccc2)[C@@H]2CCO[C@H]12` (relative stereo) came in with a melting point of 115 to 116 °C.

`Oc1ccc2c(c1)CC(NCc1ccccc1)CC2` (stereo not drawn) came in with a melting point of 161 to 163 °C.

The molecule `CON=C(C(=O)OC)c1nsc(N)n1` had a melting point of 172 to 174 °C.

`N#Cc1c(C(F)(F)F)nn(-c2c(Cl)cc(C(F)(F)F)cc2Cl)c1Br` showed a melting point of 85 to 87 °C.

In turn, `CNC(=O)N(O)C(C)c1cc(C(C)(C)C)c(O)c(C(C)(C)C)c1` (stereo not drawn) yielded a melting point of 159 to 160 °C.

Regarding `CCOC(=O)C(=CNc1ccccc1)C(=O)c1cc(F)c(Cl)c([N+](=O)[O-])c1Cl`, the melting point is 133 to 135 °C.

`Fc1ccccc1-c1cn([C@H]2CN3CCC2CC3)nn1` yielded a melting point of 94 °C.

Molecule `CCCCN(CCC12CC3CC(CC(C3)C1)C2)C(=O)NCCCc1ccncc1` returned a melting point of 110 to 118 °C.

For `Cn1cc(C2=C(c3cccc(NC4COC(C)(C)OC4)c3)C(=O)NC2=O)c2ccccc21`, the melting point was 201 to 203 °C.

`C#CCN1C(=O)c2cccc3c2N(CC3)c2ccccc21` came in with a melting point of 104 to 105 °C.

Turning to `CCN=C(NCc1ccccc1)NN=Cc1c(Cl)cccc1Cl`, the melting point lay within 101 to 103 °C.

`Cc1cccc2c1C1(COc3cc4c(cc31)OCO4)C(=O)N2Cc1ccc(C(F)(F)F)o1` (stereo not drawn) registered a melting point of 117 to 119 °C.

The molecule `O=C(O)c1ccc2c(c1)CCc1ccc(C(=O)O)cc1S2(=O)=O` had a melting point of 350 to 352 °C.

Molecule `COC(=O)CCC(=O)N[C@@H](CO)c1ccccc1` yielded a melting point of 59 to 61 °C.

`CCN1C(=O)C(C)(C)C(=O)N(C)c2cc(CN(CCn3ccc4oc(C)cc4c3=O)Cc3ccccc3-n3cccn3)ccc21` registered a melting point of 123 to 130 °C.

Take `Brc1ccc(SCc2noc(CSc3ccc(Br)cc3)n2)cc1`: the melting point was 80 °C.

With `O=[N+]([O-])c1ccc2nc3c(nc2c1)N1CCCCC1CO3` (stereo not drawn), the melting point is 226 to 229 °C.

Turning to `CN1CC[C@@H](c2c(O)cc(O)c3c(=O)cc(-c4cccs4)oc23)[C@@H]1CO`, the melting point was in the range of 218 to 220 °C.

The molecule `NS(=O)(=O)c1cccc2c1S(=O)(=O)CC2` registered a melting point of 215 to 217 °C.

`COc1ccccc1OC(=O)CCl`: the melting point lay within 60 to 61.5 °C.

`O=C(COc1ccccc1)NCCc1ccc(S(=O)(=O)NC(=O)c2ccc(C(=O)NCCO)nc2)cc1` gave a melting point of 155 to 156 °C.

`CS(=O)(=O)c1ccc(Br)c([N+](=O)[O-])c1` displayed a melting point of 126 °C.

Turning to `O=C(O)C(CCc1ccccc1)Oc1ccc(-c2ccc(-c3c(Cc4ccccc4)oc4ccccc34)cc2)cc1` (stereo not drawn), the melting point lay within 152 to 154 °C.

`CCOP(=O)(OCC)C1(P(=O)(OCC)OCC)CC(C(=O)CC)=NN1`: the melting point lay in the range of 96 to 98 °C.

With `CN1CCC(c2nc3cccnc3[nH]2)CC1`, the melting point fell in the range of 224 to 226 °C.

As to `CC(=O)OC1CSC(Oc2cccc(-c3cnccn3)c2)C(OC(C)=O)C1OC(C)=O` (stereo not drawn), the melting point amounted to 92 °C.

`OCC1CCC(c2ccccc2)CC1` (stereo not drawn) yielded a melting point of 47.3 to 48.5 °C.

For `CCOc1cc(=O)[nH]c2ccccc12`, the melting point was 223 to 226 °C.

As for `COc1ccc2c(-c3cccc(F)c3F)noc2c1Cl`, the melting point was 184 to 189 °C.

Molecule `CN(C)c1ccccc1SCc1noc(-c2ccccc2)n1` registered a melting point of 100 °C.

`CC(=O)Oc1cccc(C2(N(C)C)CCC(=O)CC2)c1` returned a melting point of 51 to 53 °C.

Consider `CCCCCCCCCCCCCCCCn1c(C2=CC(=O)c3ccccc3C2=O)ccc1C1=CC(=O)c2ccccc2C1=O`, for which the melting point lay within 40 to 43 °C.

For `CCC(C)(C)OOC(C)(CCC(=O)NNC(=O)C(C#N)=C(c1ccccc1)c1ccccc1)OOC(C)(C)CC`, the melting point lay within 145 to 148 °C.

Take `C=CCc1cccc2nc(Cc3ccccc3Cl)oc12`: the melting point lay within 61 to 62 °C.

For the molecule `CC1c2cccc3c2N(CC3)c2ccccc2N1C(=O)CN(C)C` (stereo not drawn), the melting point is 104 to 108 °C.

`C=CCCCCCCCCC(=O)N1CC[C@H]2[C@H]1[C@@H](CCC)C(=O)N2S(C)(=O)=O` (relative stereo) returned a melting point of 62 to 64.6 °C.

`COC(=O)CCCCCCCCCCC(C)=S` showed a melting point of less than 25 °C.

For the molecule `CCCCCCCCCCCCCCOCC(C=CC(=O)N(C)C)(C=CC(=O)N(C)C)COCCCCCCCCCCCCCC`, the melting point lay within 59 to 61 °C.

The molecule `O=c1ccn2c3ccccc3c3cc(Cl)cc1c32` gave a melting point of 158 to 159 °C.

Molecule `COc1ccc(Cc2ccc(C#N)cc2)cc1` displayed a melting point of 41.5 to 43.5 °C.

For the molecule `CCOC(=O)c1ccc(-c2ccc(-c3ccccc3)s2)s1`, the melting point lay within 113 to 115 °C.

With `OC(C=Cc1ccco1)c1cnc2sc3c(n12)CCCCC3` (stereo not drawn), the melting point was 177 to 180 °C.

On to `COc1cc(Nc2c(C#N)cnc3cc(-c4ccc(CN(C)C)cc4)sc23)cc(OC)c1OC`, for which the melting point fell in the range of 199 to 201 °C.

On to `CC(=O)c1nc2ccc(OC(C)C)cc2cc1O`, for which the melting point was 95 to 97 °C.

As for `O=C1N(Cc2cc(F)ccn2)c2ccccc2C12COc1cc3c(cc12)OCCO3` (stereo not drawn), the melting point was in the range of 228 to 231 °C.

`CC1CN(C(=O)Cl)NC1=O` (stereo not drawn) returned a melting point of 145 °C.

In turn, `Cc1cc(-n2nc(C(F)(F)F)cc2-c2ccc(S(C)(=O)=O)cc2)ccc1F` yielded a melting point of 134 to 136 °C.

Turning to `Nc1ccc(Nc2c(NCc3ccccc3)cc(C(=O)O)cc2S(=O)(=O)Nc2ccccc2N)cc1`, the melting point worked out at 225 °C.

In turn, `FC(F)(F)c1cccc2c(Cl)c3ccccc3c(Cl)c12` had a melting point of 142 to 143 °C.

`CCCCC(CC)C(=O)NCCCCn1cnc2c(N)nc3ccccc3c21` (stereo not drawn) registered a melting point of 163 to 164 °C.
